Experimental data published in patent US20040102485A1, “Tartrate salt of thiazolidinedione derivative” (priority 2003, published 2004).

Test: Solid state stability of the Meso-Tartrate (storage in glass bottle, HPLC assay for final content and degradation products)
Type: physicochemical
Conditions: 1 month
Method: Solid State Stability of the Meso-Tartrate, recorded for the product of Example 1 The solid state stability of the drug substance was determined by storing approximately 1.0 g of the material in a glass bottle at i) 40° C./75% Relative Humidity (RH), open exposure, for 1 month and b) at 50° C., closed, for 1 month. The material was assayed by HPLC for final content and degradation products in both cases.

[1] = 40° C./75% Relative Humidity (RH), open exposure

CN(CCOc1ccc(CC2SC(=O)NC2=O)cc1)c1ccccn1.O=C(O)C(O)C(O)C(=O)O (stereo not drawn) [Example 1, 5-[4-[2-(N-methyl-N-(2-pyridyl)amino)ethoxy]benzyl]thiazolidine-2,4-dione Meso-Tartrate]
HPLC assay (final content) [1]: 97 % initial
degradation (HPLC, degradation products) [1]: No significant degradation observed
HPLC assay (final content) (50° C., closed): 98 % initial
degradation (HPLC, degradation products) (50° C., closed): No significant degradation observed
